Results published in patent US8273748B2, “Amino alcohol derivative and immunosuppresive agent having same as an active ingredient” (Kyorin Pharmaceutical Co., Ltd., priority 2006, dated 2012).

Legend:
Format in all cases: in vivo
[1] = test system: white blood cells in mouse peripheral blood; test: Activity on total number of white blood cells in mouse peripheral blood; conditions: BALB/c mice, blood collected 6 hours after administration
Experimental: The test compounds were dissolved or suspended in DMSO, and then a physiological saline solution was added to make dosing solutions (DMSO final concentration 1%). If the dosing solutions were not in a dissolved or a uniform suspended state, Tween 80 was added so that the final concentration thereof was 0.01 to 0.1%. The resultant solutions were then sonicated to form a fine suspension. These test compound solutions were intraperitoneally administered in respective amounts of 0.1 mL or 0.2 mL per 10 g of body weight to BALB/cCrSlc male mice (8 to 14 weeks old, Japan SLC). For the control group, only a solvent having the same composition as that used in the preparation of the test compounds was administered in the same manner. Six hours after administration of the test compound solutions, blood was collected from the postcava under ether anesthesia (10 μL of 10% EDTA was added as an anticoagulant). Measurement of the total number of white blood cells was carried out using the automated blood cell counting apparatus Sysmex F-820 (Sysmex). Here, compounds having an inhibition ratio of 60% or more were marked as “+++”, compounds having an inhibition ratio of less than 60% but more than or equal to 50% were marked as “++”, and compounds having an inhibition ratio of less than 50% but more than or equal to 40% were marked as “+”. Furthermore, the inhibition ratios are the results from a dose of 0.3 mg/kg (“[ ]” are the results from 3 mg/kg).

[2] = test system: mouse host-versus-graft rejection reaction; test: Inhibition activity on mouse host-versus-graft rejection reaction (popliteal lymph node weight); conditions: ip, inhibition of popliteal lymph node weight increase, C3H/HeN mice, intraperitoneal once per day, 4 times
Experimental: Experiment example 2 was carried out by referring to the methods described in Transplantation, Vol. 55, No. 3, pp. 578 to 591, 1993. The spleens from BALB/c male mice which were6 to 23 weeks old (Japan SLC) were collected. The spleens were extracted in RPMI-1640 medium (Sigma), and then turned into a spleen cell suspension by grinding them with 2 glass slides and then passing the ground matter through a strainer (70 microns, Falcon). The spleen cell suspensions were centrifuged, and the supernatants were removed. Then, an ammonium chloride-tris isotonic buffer solution was added, and the red blood cells were hemolyzed. After centrifuging and washing 3 times with RPMI-1640 medium, the cells were suspended in RPMI-1640 medium. Mitomycin C (Kyowa Hakko) was added thereto so that the final concentration was 25 μg/mL, and the cells were incubated for 30 minutes at 37° C. under 5% CO2. After centrifuging and washing 3 times with RPMI-1640 medium, the cells were suspended in RPMI-1640 medium so that the concentration was 2.5×10^8 cells/mL. These cells were used as a stimulator cell suspension. 20 μL (5×10^6 cells/mouse) of the stimulator cell suspension was injected subcutaneously into the right hind-foodpad of C3H/HeN male mice which were6 to 11 weeks old (Clea Japan) using a 27G needle and a microsyringe (Hamilton). For the normal control group, RPMI-1640 medium only was injected. After 4 days, the right popliteal lymph nodes were extracted, and their weight was measured using Mettler AT201 electronic scales (Mettler Toledo). From the day of the stimulator cell suspensions being injected to 3 days thereafter, the test compounds were intraperitoneally administered on consecutive days once per day, for a total of 4 times. For the control group, only a solvent having the same composition as that used in the preparation of the test compounds was administered in the same manner. As the solvent, basically a physiological saline containing 0.5% DMSO was used (suitably adjusted according to the solubility of the compound). The inhibition ratio was calculated using the following equation. [formula]

[3] = test system: allogenic skin graft for rats; test: Rat skin graft model (allogenic skin graft survival); conditions: for MST: oral administration once a day
Experimental: Using a rat skin graft model, activity on the rejection reaction was investigated.
Skin from the abdomen of a LEW/CrlCrlj rat serving as the donor (male, 5 weeks old, Japan Charles River) was peeled away, and the panniculus carnosus muscule layer under the skin was removed. Then, a 1.8 cm×1.8 cm skin specimen (graft) was prepared. Next, a F344/DuCrlCrlj rat serving as the recipient (male, 5 weeks old, Japan Charles River) was anesthetized by intraperitoneal administration of 40 mg/kg of sodium pentobarbital (nembutal injection, Dainippon Sumitomo Pharma). The hair of the back of the rat was shorn off by electric clippers, and then the remaining hair was further shaved off using a razor. Then, a 1.8 cm×1.8 cm mark was made on the back of the rat, and a shallow cut was made along the mark with a scalpel. Next, the skin was peeled away along this cut by tweezers to produce a graft bed. Several drops of sterile physiological saline solution (Otsuka normal saline, Otsuka Pharmaceutical) were dropped onto the graft bed, and then wiped away with gauze. Several drops of penicillin (crystalline penicillin GpotassiumMeiji, Meiji Seika) were then dropped thereon. Next, the graft was placed on the graft bed. After absorbing excess moisture with sterile gauze, a first-aid bandaid was stuck over the graft. Furthermore, an adhesive bandage was wrapped around the trunk of the rat. On the third day after the operation, a new adhesive bandage was wrapped thereover. On the fifth day after the operation, the bandaid and the bandages were cut open with scissors and removed. Observation of the graft was carried out on consecutive days from when the bandaid was removed (from the fifth day). A determination of graft rejection was made when 90% or more of the graft had died and tuned brown. The number of days from grafting until rejection was confirmed was taken as the survival period. The mean value of the survival period for each group was calculated as the mean survival time (MST). Investigation was carried out with 5 animals per group. All of the rats were housed in individual cages. The test compounds were dissolved in ultra-pure water, and were orally administered once a day, on consecutive days, from the graft day. For the control group, ultra-pure water was administered in the same manner.

[4] = Effect on rat lung weight; conditions: Wistar rats, lungs extracted 6 hours later
Experimental: Crlj:Wistar rats (male) 5 to 8 weeks old were used in the experiment. An aqueous solution of the test compounds was respectively orally administered in an amount of 0.5 mL per 100 g of rat body weight. The lungs were extracted 6 hours later, and the lung weight was measured.

[5] = dose 3 mg/kg (values in [ ]) intraperitoneal

Row | SMILES | Inhibition Ratio ([1]; dose 0.3 mg/kg intraperitoneal) | ED50 [2] [mg/kg] | other results
1 | C[C@](N)(CO)CCCc1ccc(Sc2cccc(C(F)(F)F)c2)cc1Cl.Cl [Example 27, (R)-2-amino-5-[2-chloro-4-(3-trifluoromethylphenylthio)phenyl]-2-methylpentan-1-ol hydrochloride] | + (inhibition ratio of less than 50% but more than or equal to 40%) | < 0.1 | MST ([3]; 3 mg/kg): 11.8 days; MST ([3]; 10 mg/kg): 14 days; MST ([3]; 30 mg/kg): 20.4< days; Survival period extension effect of the graft ([3]; individual administration, oral): survival period extension effect of the graft was found; Effect on lung weight ([4]; up to a dose of 100 mg/kg oral): no effects whatsoever on lung weight
2 | C[C@](N)(CO)CCc1ccc(Sc2cccc(C(F)(F)F)c2)cc1Cl.Cl [Example 29, (R)-2-amino-4-[2-chloro-4-(3-trifluoromethylphenylthio)phenyl]-2-methylbutan-1-ol hydrochloride] | +++ (inhibition ratio of 60% or more) | 0.1 to 1 | 
3 | C[C@](N)(CO)CCc1ccc(Oc2cccc(C(F)(F)F)c2)cc1Cl.Cl [Example 28, (R)-2-amino-4-[2-chloro-4-(3-trifluoromethylphenoxy)phenyl]-2-methylbutan-1-ol hydrochloride] | ++ (inhibition ratio of less than 60% but more than or equal to 50%) | 1 to 10 | 
4 | CCC[C@](N)(CO)CCCc1ccc(Sc2cccc(C(F)(F)F)c2)cc1Cl.Cl [Example 36, (R)-2-amino-5-[2-chloro-4-(3-trifluoromethylphenylthio)phenyl]-2-propylpentan-1-ol hydrochloride] |  | 0.1 to 1 | Inhibition Ratio [1, 5]: [++] (inhibition ratio of less than 60% but more than or equal to 50%)
5 | C[C@](N)(CO)CCCc1ccc(Oc2cccc(C(F)(F)F)c2)cc1Cl.Cl [Example 26, (R)-2-amino-5-[2-chloro-4-(3-trifluoromethylphenoxy)phenyl]-2-methylpentan-1-ol hydrochloride] |  | 0.1 to 1 | Inhibition Ratio [1, 5]: [+] (inhibition ratio of less than 50% but more than or equal to 40%); Effect on lung weight ([4]; up to a dose of 30 mg/kg oral): no effects whatsoever on lung weight
6 | CCc1cccc(Sc2ccc(CCC[C@@](C)(N)CO)c(Cl)c2)c1.Cl [Example 32, (R)-2-amino-5-[2-chloro-4-(3-ethylphenylthio)phenyl]-2-methylpentan-1-ol hydrochloride] |  | 0.1 to 1 | 
7 | C[C@](N)(CO)CCCc1ccc(Sc2cccc(C(F)(F)F)c2)cc1F.Cl [Example 35, (R)-2-amino-5-[2-fluoro-4-(3-trifluoromethylphenylthio)phenyl]-2-methylpentan-1-ol hydrochloride] |  | 0.1 to 1 | 
